Source: patent US20240116879A1, “AMILORIDE DERIVATIVES AND METHODS OF USING SAME FOR THE TREATMENT OF VIRAL INFECTIONS” (priority 2020, published 2024)

Legend:
[1] = system: human coronavirus OC43; assay type: cell-based; details: for effect on virus titer (in words): 50 μM or 100 μM, Vero E6, MOI=1, 24 hours at 33° C.; for reduced virus titer: 100 μM, Vero E6, MOI=1, 24 hr, plaque formation
[2] = system: SARS-CoV-2; test: microbe, parasite or virus in culture; assay type: cell-based; details: Severe acute respiratory syndrome coronavirus 2, Vero C1008; Vero E6, MOI 0.1, within 24 hours of infection; read-out: approximate IC50, cell-free viral RNA levels
[3] = system: SARS-CoV-2; assay type: cell-based; details: for viral titer compared to DMSO (TCID50 assay): 10 μM and 50 μM, MOI 0.1, 3 days; for antiviral activity compared to parent scaffold DMA-01: Vero E6 infected with wild-type SARS-CoV-2
[4] = Cytotoxicity MTT assay in Vero E6 cells; assay type: cell-based, African green monkey; details: African green monkey, Vero E6 cells; Vero E6, 96 hrs, 33° C., MTT
Description: (§1) Cytotoxicity Assays: Various concentrations of DMAs were added to Vero E6 cells in culture. The cells were incubated at 33° C. for 96 hrs. Cell viability was determined by MTT assay and measured at 570 nm according to the manufacturer's instructions (EMD Millipore). All experiments were performed in triplicate. The concentration of DMAs required to reduce cell viability to 50% of the control cells was expressed as CC50.

[5] = system: Vero E6 cells; test: Cytotoxicity MTT assay in Vero E6 cells; assay type: cell-based, African green monkey; details: <10 μM, 96 hour, Vero E6
Description: as §1

[6] = system: SARS-CoV-2 5′-end and 3′UTR; assay type: cell-based
[7] = system: SARS-CoV-2 SL1 RNA; test: Indicator displacement assay (IDA), SL1; assay type: binding; details: RiboGreen displacement, Tris buffer pH 7.4
[8] = system: SARS-CoV-2 SL4 RNA; test: Indicator displacement assay (IDA), SL4; assay type: binding; details: RiboGreen displacement, Tris buffer pH 7.4
[9] = system: SARS-CoV-2 SL6 RNA; test: Indicator displacement assay (IDA), SL6; assay type: binding; details: RiboGreen displacement, Tris buffer pH 7.4
[10] = system: VeroE6 cells; details: uninfected VeroE6, 3 days of treatment, 10 μM and 50 μM
[11] = system: SARS-CoV-2 stem loop constructs (SL1, SL4, SL5a, SL5b, SL6); assay type: binding; details: RiboGreen displacement, Tris buffer pH 7.4

Structure (SMILES) | effect on virus titer (in words) [1] | reduced virus titer [1] | IC50 [2] | viral titer compared to DMSO (TCID50 assay) [3] | antiviral activity compared to parent scaffold DMA-01 [3] | CC50 at 96 h [4] | cell viability [5] | reduction of FLuc activity [6] | affinity for SL1 (IDA) [7] | affinity for SL4 (IDA) [8] | affinity for SL6 (IDA) [9] | cellular viability as measured by ATP content [10] | binding affinity against any of the constructs (IDA) [11]
CN(C)c1nc(N)c(C(=O)NC(=N)N)nc1C#Cc1ccccc1 [DMA-135] | reduce virus titer in a dose-dependent manner | ~1,000 fold | ~10 µM | dose-dependent reduction in viral titer | improved antiviral activity | > 100 µM | do not significantly reduce cell viability | approximately 50% | weak affinity | weak affinity | weak affinity | without measurable effect on cellular viability | –
CN(C)c1nc(N)c(C(=O)NC(=N)N)nc1-c1ccc(-c2ccccc2)cc1 [DMA-155] | reduce virus titer in a dose-dependent manner | ~1,000 fold | ~16 µM | – | improved antiviral activity | ~90 µM | do not significantly reduce cell viability | ~90% | – | – | strong binder with highest affinity for SL6 | – | –
CN(C)c1nc(N)c(C(=O)N=C(N)N)nc1Cl [DMA-1, dimethylamiloride, reference compound] | no activity | – | – | – | – | – | – | – | – | – | – | – | did not show binding affinity
CN(C)c1nc(N)c(C(=O)NC(=N)N)nc1-c1ccccc1 [DMA-132] | reduce virus titer in a dose-dependent manner | ~1,000 fold | – | dose-dependent reduction in viral titer | improved antiviral activity | > 100 µM | do not significantly reduce cell viability | approximately 50% | – | – | – | without measurable effect on cellular viability | did not show binding affinity
